Results as given in patent publication US11241410B2, “Method and compound for the treatment of covid-19” (priority 2020, dated 2022).
Values after ≈ are worked out from the molar mass of the structure shown. “Also recorded” adds a separate entry of the source. Read-outs that look alike come from different tables or passages of the source.

Key:
[1] = test system: guinea pigs; conditions: intradermal and topical, listed as DEGD; cited from earlier work
[2] = test system: HIV; assay: HIV in vitro tests (Table 1); assay type: cell-based
[3] = test system: Seleneastrum capricornutum; conditions: in vivo; cited from earlier work
[4] = test system: MDR-27221 HIV strain; assay: microbe, parasite or virus in culture; assay type: cell-based, HIV-1
[5] = test system: activated sludge; conditions: cited from earlier work
[6] = test system: eye of the rabbit; conditions: single instillation, listed as DEGD; cited from earlier work
[7] = test system: rats; conditions: cited from earlier work
[8] = test system: CEM-SS cells; assay: Drug induced toxicity in CEM-SS cells; assay type: cell-based; conditions: Homo sapiens, read-out: 50% inhibitory concentration (IC50), drug induced toxicity, high-test concentration 100 ug/ml
[9] = test system: mouse lymphoma cells; conditions: with and without metabolic activation; cited from earlier work
[10] = test system: Eisenia foetida; conditions: cited from earlier work
[11] = test system: CHL cells; conditions: cited from earlier work
[12] = test system: SARS-CoV-2; assay: microbe, parasite or virus in culture; assay type: cell-based
[13] = test system: Vero E6 cells; assay: Toxicity in Vero E6 cells; assay type: cell-based
Description: Remdesivir was used as a control and verified that the assay was working. The first independent trial (done in quadruplicate) involved using the very first BTS compound sent to us, dissolved at 10 ug/ml in DMSO. Toxicity was observed ˜0.078 ug/ml ([…] based on the molecular weight we were given and the concentration of the drug). The dose curve (log (inhibitor) vs. response (three parameters)) yielded the nicest curve, but only reached a maximum of ˜20% protection. […] Twenty-two 2-fold dilutions of the drug starting from 10 ug/ml (˜323 uM).
FIG. 18 illustrates a graph showing 90I toxicity in Vero E6 cells, according to an exemplary embodiment of the present general inventive concept.

[14] = test system: ovariectomized adult Spraque-Dawley (CD) rats; conditions: 500-2000 mg/kg/day for 7 days, oral gavage, up to maximally tolerated dose; cited from earlier work
[15] = cited from earlier work
[16] = test system: rat; conditions: cited from earlier work
[17] = test system: intact rabbit skin; conditions: semi-occlusive, four hours, listed as DEGD; cited from earlier work
[18] = test system: gamma interferon; assay: Production of gamma interferon by cells; assay type: cell-based; conditions: compared with positive control PMA-Ionomycin combination
Text: FIG. 4 illustrates a graph showing production of gamma interferon by cells receiving 90I compared to other drugs, according to an exemplary embodiment of the present general inventive concept.
Referring to FIG. 4, furthermore, 90I has proven to stimulate the production of gamma interferon (i.e. a dimerized soluble cytokine that is the only member of the type II class of interferons and is a product of human leukocytes and human lymphocytes). More specifically, […] and differentiate into tissue macrophages, such that each of the tissue macrophages may serve as a vehicle for transporting viruses to a variety of tissues. The ability of antiretroviral agents to cross the blood brain barrier is one important consideration, since the brain acts as a sanctuary for viruses as well as a site for disease progression.
Referring again to FIG. 4, activated CD8+ cells are reported to produce high levels of gamma interferon, which may be involved in the anti-HIV-1 immune responses, contributing to both control of viral spread and concomitant lymphoid follicular lyses. […] This finding may have a far-reaching implication and relevant to interleukin 12 (IL-12) (i.e. a cytokine that is produced by activated antigen-presenting cells, such as dendritic cells and/or macrophages). […]

[19] = 28 days; cited from earlier work
[20] = test system: Pseudomonas putida; conditions: cited from earlier work
[21] = test system: rats; conditions: OECD 401; cited from earlier work
[22] = test system: RF laboratory strain of HIV-1; assay: Antiviral drug assay in CEM-SS cells; assay type: cell-based; conditions: Human immunodeficiency virus 1, CEM-SS, read-out: 50% effective concentration (EC50)
[23] = test system: Daphnia; conditions: in vivo; cited from earlier work
[24] = test system: bacterial; conditions: with and without metabolic activation; cited from earlier work
[25] = test system: dogs; conditions: up to 300 mg/kg/day for 90 days; cited from earlier work
[26] = cited from earlier work; remark: listed apart in the source
[27] = Table 10 summary; cited from earlier work
[28] = test system: rats; conditions: cited from earlier work; remark: listed apart in the source
[29] = test system: Pimephales promelas; conditions: acute, 96 h; cited from earlier work
[30] = rats, cited from earlier work
[31] = test system: HCoV; conditions: Huh7, 4 days, 96 well, reference compound; cited from earlier work
[32] = test system: Huh7; conditions: Huh7, 4 days, CellTiter Glo, reference compound; cited from earlier work
[33] = biological target: T1, SARS-CoV-2 main protease (Severe acute respiratory syndrome coronavirus 2, UniProt P0DTD1); conditions: auto dock; cited from earlier work
T1 construct: also MProtease (SARS-CoV-2 main protease)

[34] = biological target: T2, Mpro (Severe acute respiratory syndrome coronavirus 2, UniProt P0DTD1); conditions: Mpro and substrate, 40 min, 384 well; cited from earlier work
T2 construct: also MProtease (SARS-CoV-2 main protease)

[35] = test system: COVID-19; conditions: after one month; control arm 12.8%, difference not statistically significant; cited from earlier work
[36] = Severe acute respiratory syndrome coronavirus 2, preliminary, first independent trial
[37] = from ppm by standard conversion factors
[38] = HIV in vitro tests, read-out: EC50

O=C(OCCOCCOC(=O)c1ccccc1)c1ccccc1 [90I, diethylene glycol dibenzoate]
Sensitisation [1]: No allergic skin reaction and Not | EC50 ([2]; Human immunodeficiency virus 1): 0.3 nM | growth rate-based EC50 for algae [3]: 11 mg/L | EC50 ([4]; Human immunodeficiency virus 1): 3 mg/L (≈ 9.54 µM) | inhibition of the MDR strain ([4]; MDR-27221): strong inhibitory activity | NOEC, activated sludge ([5]; Table 11): NOEC ≥100 mg/L, | activated sludge respiration ([5]; at 100 mg/L): not inhibited | Eye irritation [6]: transient very slight conjunctival irritation only; also recorded: Slight | Maternal toxicity ([7]; Table 10 summary): 1,000 mg/kg bw/day | Reproductive toxicity (NOEL) ([7]; Table 10 summary): 250 mg/kg bw/day | Reproductive toxicity NOAEL ([7]; Table 10 summary): 500 mg/kg bw/day | Reproductive toxicity, D ([7]; Table 10 summary): D: Yes | NOAEL for prenatal development ([7]; rats, diet): 500 mg/kg/day | NOEL for fetal growth and development ([7]; rats, diet): 250 mg/kg/day | NOEL for maternal toxicity ([7]; rats, diet): 1,000 mg/kg/day | IC50 [8]: > 100 mg/L | mutagenic potential, mammalian cell [9]: did not demonstrate mutagenic potential | LC50 (14 d), earthworm ([10]; 14 d, Table 11): d) >1,000 mg/kg | acute toxicity to earthworm ([10]; 14 days): greater than 1,000 ppm | clastogenic activity [11]: No response considered to be indicative of clastogenic | EC50 [12, 36]: 4100 nM | IC50 [12, 36]: 2.8 nM | maximum protection ([12]; dose curve log(inhibitor) vs. response, SARS-CoV-2 infected cells): ~20% | concentration at which toxicity was observed ([13]; Vero E6, converted with molecular weight given): ~2.5 µM | concentration at which toxicity was observed ([13]; Vero E6, first independent trial, quadruplicate): ~0.078 µg/mL | estrogenic activity [14]: did not exhibit estrogenic activity | Water solubility [15]: 0.193 mg/mL | Repeat dose, NOAEL ([16]; Table 10 summary): 1,000 mg/kg bw/day | NOAEL ([16]; rat, thirteen week, diet): 1,000 mg/kg bw | Skin irritation [17]: No dermal reaction and No | amount of gamma interferon produced [18]: equivalent to that of the positive control | biodegradation [19]: 93 % of ThOD | EC50 (P. putida) ([20]; Table 11): EC50 >10 mg/L | inhibitory effect (1050) ([20]; highest testable concentration 10 mg/L): > 10 mg/L | LD50, oral [21]: 4,198 mg/kg bw | EC50 [22]: 0.02 mg/L (≈ 0.0636 µM) | EC50 for Daphnia [23]: 6.7 mg/L | mutagenic potential, bacterial [24]: did not demonstrate mutagenic potential | effects of dietary administration [25]: No effects | Log P [26]: 3.04 | Genotoxicity [27]: Negative | Reproductive toxicity, R ([28]; Table 10 summary): R: No | NOAEL for the FO and FI parent animals [28, 37]: 500 mg/kg bw/day | NOAEL for the developing offspring [28, 37]: 165 mg/kg bw/day | NOEL for reproductive parameters [28, 37]: 500 mg/kg bw/day | NOAEL for the FO and FI parent animals, dietary concentration ([28]; rats, 2-generation, diet): 10,000 ppm | NOAEL for the developing offspring, dietary concentration ([28]; rats, 2-generation, diet): 3,300 ppm | NOEL for reproductive parameters, dietary concentration ([28]; rats, 2-generation, diet): 10,000 ppm | LC50 to fish [29]: 3.9 mg/L (≈ 12.4 µM) | time within which almost all of the dose was adsorbed, metabolized and excreted in the urine ([30]; single oral doses of 50 and 750 mg/kg): ≤ 24 h | metabolic pathway ([30]; single oral doses): hydrolysis of the ester bonds to benzoic acid

CCN(CC)CCCC(C)Nc1ccnc2cc(Cl)ccc12 (centres unmarked) [Chloroquine phosphate]
EC50 [31]: 3450 nM | CC50 [32]: 40800 nM

CCN(CC)CCCC(C)Nc1ccnc2cc(Cl)ccc12 (centres unmarked) [Chloroquine]
Dissociation Constant [33]: 5.0E−05 | SMINA score [33]: −5.4 | Vina score [33]: −5.9

CC(C)c1nc(CN(C)C(=O)N[C@@H](CCN2CCOCC2)C(=O)N[C@H](CC[C@H](Cc2ccccc2)NC(=O)OCc2cncs2)Cc2ccccc2)cs1 [Cobicistat]
Dissociation Constant [33]: 5.7E−06 | SMINA score [33]: −7.2 | Vina score [33]: −7.2

CCN(CCO)CCCC(C)Nc1ccnc2cc(Cl)ccc12 (centres unmarked) [Hydroxychloroquine]
Dissociation Constant [33]: 2.3E−05 | SMINA score [33]: −6.4 | Vina score [33]: −6.0

CC(C)(C)NC(=O)[C@@H]1CN(Cc2cccnc2)CCN1C[C@@H](O)C[C@@H](Cc1ccccc1)C(=O)N[C@H]1c2ccccc2C[C@H]1O [Indinivir]
EC50 [2, 38]: 5 nM

Cc1cccc(C)c1OCC(=O)N[C@@H](Cc1ccccc1)[C@@H](O)C[C@H](Cc1ccccc1)NC(=O)[C@H](C(C)C)N1CCCNC1=O [Lopinavir]
Dissociation Constant [33]: 3.4E−06 | SMINA score [33]: −7.5 | Vina score [33]: −7.4 | EC50 [34]: 108000 nM

Cc1ccnc2c1NC(=O)c1cccnc1N2C1CC1 [Neverepin]
EC50 [2, 38]: 48 nM

CCOC(=O)C1=C[C@@H](OC(CC)CC)[C@H](NC(C)=O)[C@@H](N)C1 [Oseltamivir]
Dissociation Constant [33]: 1.8E−05 | SMINA score [33]: −6.3 | Vina score [33]: −6.5

CCC(CC)COC(=O)[C@H](C)N[P@](=O)(OC[C@H]1O[C@@](C#N)(c2ccc3c(N)ncnn23)[C@H](O)[C@@H]1O)Oc1ccccc1 [Remdesivir]
patients who had died [35]: 13.9% | CC50 [32]: 29000 nM

CC(C)c1nc(CN(C)C(=O)N[C@H](C(=O)N[C@@H](Cc2ccccc2)C[C@H](O)[C@H](Cc2ccccc2)NC(=O)OCc2cncs2)C(C)C)cs1 [Retinovir]
EC50 [2, 38]: 2 nM

CC(C)c1nc(CN(C)C(=O)N[C@H](C(=O)N[C@@H](Cc2ccccc2)C[C@H](O)[C@H](Cc2ccccc2)NC(=O)OCc2cncs2)C(C)C)cs1 [Ritonavir]
Dissociation Constant [33]: 2.5E−06 | SMINA score [33]: −7.7 | Vina score [33]: −7.5

CC(C)(C)NC(=O)[C@@H]1C[C@@H]2CCCC[C@@H]2CN1C[C@@H](O)[C@H](Cc1ccccc1)NC(=O)[C@H](CC(N)=O)NC(=O)c1ccc2ccccc2n1 [Saquinovir]
EC50 [2, 38]: 1.2 nM

CCOC(=O)c1c(CSc2ccccc2)n(C)c2cc(Br)c(O)c(CN(C)C)c12 [Umifenovir]
Dissociation Constant [33]: 2.2E−05 | SMINA score [33]: −6.0 | Vina score [33]: −6.4

O=c1[nH]cnc2c1ncn2[C@H]1CC[C@@H](CO)O1 [ddI]
EC50 [2, 38]: 5.6 nM

Nc1ccn([C@H]2CC[C@@H](CO)O2)c(=O)n1 [ddc]
EC50 [2, 38]: 1 nM
